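Method: 48-hour compound exposure of cells in 96-well plates, five concentrations, linear interpolation of endpoints. Abbreviation: GI50, concentration required for 50% inhibition of growth.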 Calls of active or inactive are those of the source. No stated cut-off is given here; in the data, active = GI50 up to about 1.1 µM and inactive = higher.
What was measured:
Assay in all cases: NCI-60 cell line screen, 48 h
SR = test system: SR
UACC-62 = test system: UACC-62
NCI-H226 = test system: NCI-H226
HOP-92 = test system: HOP-92
PC-3 = test system: PC-3
SF-295 = test system: SF-295
K562 = test system: K562
OVCAR-8 = test system: OVCAR-8
MOLT-4 = test system: MOLT-4
U-251 = test system: U-251
OVCAR-3 = test system: OVCAR-3
CAKI-1 = test system: CAKI-1
LOX IMVI = test system: LOX IMVI
HCT-15 = test system: HCT-15
CCRF-CEM = test system: CCRF-CEM
COLO 205 = test system: COLO 205
Hs-578T = test system: Hs-578T
HL-60 = test system: HL-60
NCI-H522 = test system: NCI-H522
SNB-19 = test system: SNB-19

SMILES | GI50 (SR) | GI50 (UACC-62) | GI50 (NCI-H226) | GI50 (HOP-92) | GI50 (PC-3) | GI50 (SF-295) | GI50 (K562) | GI50 (OVCAR-8) | GI50 (MOLT-4) | GI50 (U-251) | GI50 (OVCAR-3) | GI50 (CAKI-1) | GI50 (LOX IMVI) | GI50 (HCT-15) | GI50 (CCRF-CEM) | GI50 (COLO 205) | GI50 (Hs-578T) | GI50 (HL-60) | GI50 (NCI-H522) | GI50 (SNB-19)
O=C1C2=Cc3ccccc3OC2(O)Oc2ccccc21 (configuration not stated) | > 100 µM (inactive) | > 100 µM (inactive) | > 100 µM (inactive) | > 100 µM (inactive) | > 100 µM (inactive) | > 100 µM (inactive) | 57.8 µM (inactive) | > 100 µM (inactive) | > 100 µM (inactive) | > 100 µM (inactive) | 91.2 µM (inactive) | > 100 µM (inactive) | > 100 µM (inactive) | > 100 µM | > 100 µM (inactive) | > 100 µM (inactive) | – | – | – | –
CC(C(=O)COCc1ccccc1)P1(=O)OC(C)(C)CN1C(C)(C)C (configuration not stated) | – | > 100 µM (inactive) | > 100 µM (inactive) | > 100 µM (inactive) | – | > 100 µM (inactive) | – | > 100 µM (inactive) | > 100 µM (inactive) | – | > 100 µM (inactive) | > 100 µM (inactive) | > 100 µM (inactive) | > 100 µM | > 100 µM (inactive) | > 100 µM (inactive) | > 100 µM (inactive) | > 100 µM (inactive) | > 100 µM (inactive) | –
Cc1cc2c(c(N)c1C)C(=O)c1ccccc1C2=O | > 100 µM (inactive) | 5.12 µM (inactive) | – | 18 µM (inactive) | – | 27.4 µM (inactive) | > 100 µM (inactive) | 20 µM (inactive) | > 100 µM (inactive) | 20.3 µM (inactive) | – | 14.5 µM (inactive) | 17.7 µM (inactive) | 45.8 µM | > 100 µM (inactive) | > 100 µM (inactive) | – | > 100 µM (inactive) | 21.7 µM (inactive) | 27.9 µM (inactive)
O=C(O)CCC(=O)N1C/C(=C\c2ccccc2)C(=O)/C(=C/c2ccccc2)C1 | 0.59 µM (active) | 1.26 µM (inactive) | 18 µM (inactive) | 16.3 µM (inactive) | – | 2.44 µM (inactive) | 1.19 µM (inactive) | 3.09 µM (inactive) | 2.34 µM (inactive) | 1.78 µM (inactive) | 2.41 µM (inactive) | 4.71 µM (inactive) | 1.68 µM (inactive) | 2.06 µM | 1.03 µM (active) | 3.47 µM (inactive) | – | 2.21 µM (inactive) | 1.07 µM (active) | 3.16 µM (inactive)
c1ccc(C(NCC2CCO2)(c2ccccc2)c2ccccc2)cc1 (configuration not stated) | 36.3 µM (inactive) | 14.7 µM (inactive) | 11.3 µM (inactive) | 13.9 µM (inactive) | 15.8 µM (inactive) | 15.1 µM (inactive) | 34.1 µM (inactive) | 12.6 µM (inactive) | 30.2 µM (inactive) | 23 µM (inactive) | 18.5 µM (inactive) | 23.9 µM (inactive) | 28.6 µM (inactive) | 16.4 µM | 33.3 µM (inactive) | 39.1 µM (inactive) | – | 19.3 µM (inactive) | 13.5 µM (inactive) | 13.7 µM (inactive)
O=C(/C=C/c1c(O)ccc2ccccc12)c1ccccc1 | > 100 µM (inactive) | > 100 µM (inactive) | > 100 µM (inactive) | > 100 µM (inactive) | – | > 100 µM (inactive) | 58.5 µM (inactive) | > 100 µM (inactive) | > 100 µM (inactive) | > 100 µM (inactive) | > 100 µM (inactive) | > 100 µM (inactive) | 19.3 µM (inactive) | > 100 µM | 35.6 µM (inactive) | > 100 µM (inactive) | – | 35.7 µM (inactive) | > 100 µM (inactive) | > 100 µM (inactive)
CC(=O)OC1CC2c3cccc4c3C(CC2N(C)C1=O)CN4C(=O)c1ccccc1 (configuration not stated) | 22.5 µM (inactive) | 20.3 µM (inactive) | 20.7 µM (inactive) | 4.25 µM (inactive) | 20.2 µM (inactive) | 23.2 µM (inactive) | 27.5 µM (inactive) | 16.4 µM (inactive) | 20.9 µM (inactive) | 15.7 µM (inactive) | 13.8 µM (inactive) | 23 µM (inactive) | 12.1 µM (inactive) | 14.5 µM | 20.7 µM (inactive) | 23.3 µM (inactive) | – | 15.2 µM (inactive) | 4.24 µM (inactive) | 30.3 µM (inactive)
CC(=O)Nc1ccc(/C=c2\sc3nnc(-c4cccnc4)n3c2=O)cc1 | 17.3 µM (inactive) | 13.4 µM (inactive) | 49.7 µM (inactive) | 12 µM (inactive) | – | 36.4 µM (inactive) | 22.4 µM (inactive) | 17.6 µM (inactive) | 19.7 µM (inactive) | 17.8 µM (inactive) | 17.8 µM (inactive) | 17.9 µM (inactive) | 16.5 µM (inactive) | 17.6 µM | 17.4 µM (inactive) | 15.4 µM (inactive) | – | 16.4 µM (inactive) | 16.1 µM (inactive) | 24.2 µM (inactive)
CSC1=C(C(=O)N(COCC[Si](C)(C)C)c2ccccc2Br)CCC(C(C)(C)C)C1 (configuration not stated) | 3.42 µM (inactive) | 10.9 µM (inactive) | 13.9 µM (inactive) | 12.9 µM (inactive) | 12.4 µM (inactive) | 9.64 µM (inactive) | 8.28 µM (inactive) | 17.8 µM (inactive) | 5.87 µM (inactive) | 11.6 µM (inactive) | 10.7 µM (inactive) | 1.83 µM (inactive) | 15.7 µM (inactive) | 11.7 µM | 22.7 µM (inactive) | 12.4 µM (inactive) | – | 3.24 µM (inactive) | 7.78 µM (inactive) | 18.5 µM (inactive)
CCCC(=O)OC[n+]1ccc2c(C)c3[nH]c4ccccc4c3c(C)c2c1 | 0.0681 µM (active) | 1.5 µM (inactive) | 1.11 µM (active) | 1.32 µM (inactive) | – | 0.43 µM (active) | 0.466 µM (active) | 0.394 µM (active) | 0.0661 µM (active) | 0.498 µM (active) | 1.2 µM (inactive) | 1.29 µM (inactive) | 0.341 µM (active) | 0.274 µM | 1.66 µM (inactive) | 0.705 µM (active) | – | 1.68 µM (inactive) | 0.832 µM (active) | 0.935 µM (active)
COc1ccc(C2=Nc3ccccc3NC(=O)C2)cc1 | > 100 µM (inactive) | > 100 µM (inactive) | > 100 µM (inactive) | 21 µM (inactive) | – | 23.1 µM (inactive) | > 100 µM (inactive) | 40.5 µM (inactive) | > 100 µM (inactive) | 28 µM (inactive) | 64 µM (inactive) | > 100 µM (inactive) | 18.3 µM (inactive) | 51.9 µM | 41.9 µM (inactive) | 38.3 µM (inactive) | – | 21.8 µM (inactive) | 38.9 µM (inactive) | 28.2 µM (inactive)
COC(=O)c1onc(-c2c(OC)cc(OC)cc2OC)c1C(=O)OC | > 100 µM (inactive) | > 100 µM (inactive) | > 100 µM (inactive) | > 100 µM (inactive) | – | > 100 µM (inactive) | > 100 µM (inactive) | > 100 µM (inactive) | > 100 µM (inactive) | > 100 µM (inactive) | > 100 µM (inactive) | > 100 µM (inactive) | > 100 µM (inactive) | > 100 µM | > 100 µM (inactive) | > 100 µM (inactive) | – | > 100 µM (inactive) | > 100 µM (inactive) | > 100 µM (inactive)

Reference: ChEMBL document CHEMBL1201862, “PubChem BioAssay data set” (2004)
